From US20070254882A1, “Sulfamide Derivatives and Pharmaceutical Composition for Upregulation of Lipid Metabolism Comprising Same” (CRYSTAL GENOMICS, INC., priority 2004, published 2007)

Biological target: T1, human PPAR α (Homo sapiens, UniProt Q07869)
T1 construct: expressed in transfected cells; host or cells: HepG2 (ATCC HB-8065) or 293T cells (ATCC CRL-1573)
T1 sequence (Q07869 239-466 limits assumed): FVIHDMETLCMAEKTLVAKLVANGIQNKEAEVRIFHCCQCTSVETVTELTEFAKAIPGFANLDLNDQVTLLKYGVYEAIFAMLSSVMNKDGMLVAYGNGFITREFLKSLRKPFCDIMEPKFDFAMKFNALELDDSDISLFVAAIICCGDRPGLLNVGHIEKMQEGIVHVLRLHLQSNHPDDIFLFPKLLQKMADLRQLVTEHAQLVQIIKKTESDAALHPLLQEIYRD
Test: Exogeneous PPAR α agonist assay (GAL4 DNA binding domain/PPAR α ligand binding domain, luciferase) in 293T cells
Type: cell-based
Parameters: scale not given here
Details: 25 μM compound, 48 hours, luciferase activity increase relative to the control
Description: Step 1) Exogeneous PPAR α Agonist Assay
Cross-activation assay of the compounds of Examples 1 to 134 against human PPAR α was carried out using a DNA construct of PPAR α including its ligand binding domain and GAL4 DNA binding domain (Sher et al., Biochemistry 32, 5598-5604, 1993) to analyze whether any of the compounds binds to the ligand binding domain of PPAR α expressed by the construct to affect the PPAR α activity. When the GAL4 DNA binding domainm which is fused with PPAR α ligand binding domain, binds to UAS (upstream activation sequence) of firefly-luciferase, the luciferase is expressed. Therefore, the effect of each of the compounds of Examples on PPAR α activation can be evaluated by analyzing the activation of luciferase.
Specifically, 2×10^4 of HepG2 (ATCC HB-8065) or 293T cells (ATCC CRL-1573) were aliquotted into each well of a 96-well plate and cultured for overnight at 37° C. in a CO2 incubator (culture condition: DMEM, 10% FBS and 1% antibiotics).
The transformation of PPAR α DNA was traced as follows. First, a mixture of the following ingredients in amounts per well; Solution A (Promega) containing 50 ng of full length human PPAR α DNA, 50 ng of firefly-luciferase construct, 5 ng of Renilla-luciferase construct, 1.0 μl of PLUS™ reagent, and 8.3 μl of a serum-free medium containing no antibiotics; was prepared and kept at room temperature for 15 min. Solution B, which contained 0.5 μl of Lipofectamine™ reagent and 9.5 μl of serum-free medium without antibiotics per well, and Solution C, which contained 50 μl of serum-free medium per well), were prepared. Solutions A, B and C were mixed together to prepare lipofectamin-DNA complex, and the mixture was kept at room temperature for 15 min. Single layer of cells on each well of a 96-well plate were washed with serum-free DMEM, 70 μl of lipofectamine-DNA complex prepared above was added thereto, the plate was incubated at 37° C. in a 5% CO2 incubator for 3 hours to transform the cells, and […] of a diluted solution of each of the compounds of Examples 1 to 134 per well was added to each well to a final concentration 25 μM, and incubated at 37° C. in a CO2 incubator for 48 hours. Then, the medium was removed, 50 μl of passive lysis buffer (Promega) was added thereto, and the plate was shook at room temperature for 20 min to lysis cells. 40 μl of Luciferase Assay reagent of Dual Luciferase Kit […] per 20 μl of cell lysis buffer was added to the plate, followed by reacting at 20° C. for 8 seconds, and 40 μl of Stop & Glo reagent (Promega) as a stop solution was added thereto to quench the reaction. The luminescence intensities of F-luciferase and R-luciferase were measured with MicroLumat Plus (Berthord Technology).

Structure (SMILES) | Activity at 25 μM Step 1 293T cell
Cc1oc(-c2ccccc2)nc1COc1cccc(CN(CC(=O)O)S(=O)(=O)N(C)C)c1 [Example 3, [N—[(N,N-dimethylamino)sulfonyl]-N-[3-[(2-phenyl-5-methyloxazol-4-yl)methoxy]benzyl]amino]acetic acid] | 2
Cc1oc(-c2cccs2)nc1COc1cccc(CN(CC(=O)O)S(=O)(=O)N(C)C)c1 [Example 12, [N—(N,N-dimethylamino)sulfonyl-N-[3-[[2-(thiophen-2-yl)-5-methyloxazol-4-yl]methoxy]benzyl]amino]acetic acid] | 2
Cc1nc(-c2ccc(C(F)(F)F)cc2)oc1COc1cccc(CN(CC(=O)O)S(=O)(=O)N(C)C)c1 [Example 13, [N—(N,N-dimethylamino)sulfonyl-N-[3-[[2-(4-trifluoromethylphenyl)-4-methyloxazol-5-yl]methoxy]benzyl]amino]acetic acid] | 2
Cc1oc(-c2ccccc2)nc1COc1cccc(CN(CC(=O)O)S(=O)(=O)N(C)c2ccccc2)c1 [Example 14, [N—[(N-methyl-N-phenyl)amino]sulfonyl-N-[3-[(2-phenyl-5-methyloxazol-4-yl)methoxy]benzyl]amino]acetic acid] | 2
Cc1ccc(-c2nc(COc3cccc(CN(CC(=O)O)S(=O)(=O)N(C)c4ccccc4)c3)c(C)o2)cc1 [Example 15, [N—[(N-methyl-N-phenyl)amino]sulfonyl-N-[3-[[2-(4-methylphenyl)-5-methyloxazol-4-yl]methoxy]benzyl]amino]acetic acid] | 2
Cc1oc(-c2ccccc2)nc1COc1cccc(CN(CC(=O)O)S(=O)(=O)N(C)c2ccc(Cl)cc2)c1 [Example 18, [N—[[N-methyl-N-(4-chlorophenyl)]amino]sulfonyl-N-[3-[(2-phenyl-5-methyloxazol-4-yl)methoxy]benzyl]amino]acetic acid] | 2
Cc1ccc(-c2nc(COc3cccc(CN(CC(=O)O)S(=O)(=O)N(C)c4ccc(Cl)cc4)c3)c(C)o2)cc1 [Example 19, [N—[[N-methyl-N-(4-chlorophenyl)]amino]sulfonyl-N-[3-[[2-(4-methylphenyl)-5-methyloxazol-4-yl]methoxy]benzyl]amino]acetic acid] | 2
Cc1oc(-c2ccc(C(F)(F)F)cc2)nc1COc1cccc(CN(CC(=O)O)S(=O)(=O)N(C)c2ccc(Cl)cc2)c1 [Example 20, [N—[[N-methyl-N-(4-chlorophenyl)]amino]sulfonyl-N-[3-[[2-(4-trifluoromethylphenyl)-5-methyloxazol-4-yl]methoxy]benzyl]amino]acetic acid] | 2
Cc1nc(-c2ccc(C(F)(F)F)cc2)oc1COc1cccc(CN(CC(=O)O)S(=O)(=O)N2CCCC2)c1 [Example 26, [N-(pyrrolidinyl)sulfonyl-N-[3-[[2-(4-trifluoromethylphenyl)-4-methyloxazol-5-yl]methoxy]benzyl]amino]acetic acid] | 2
Cc1nc(-c2ccc(C(F)(F)F)cc2)oc1COc1cccc(CN(CC(=O)O)S(=O)(=O)N2CCOCC2)c1 [Example 29, [N-(morpholinyl)sulfonyl-N-[3-[[2-(4-trifluoromethylphenyl)-4-methyloxazol-5-yl]methoxy]benzyl]amino]acetic acid] | 2
Cc1oc(-c2ccccc2)nc1COc1cccc(CN(CC(=O)O)S(=O)(=O)N2CCc3ccccc32)c1 [Example 30, [N-(indolinyl)sulfonyl-N-[3-[(2-phenyl-5-methyloxazol-4-yl)methoxy]benzyl]amino]acetic acid] | 2
Cc1oc(-c2ccc(C(F)(F)F)cc2)nc1COc1cccc(CN(CC(=O)O)S(=O)(=O)N2CCc3ccccc32)c1 [Example 32, [N-(indolinyl)sulfonyl-N-[3-[[2-(4-trifluoromethylphenyl)-5-methyloxazol-4-yl]methoxy]benzyl]amino]acetic acid] | 2
Cc1oc(-c2ccccc2)nc1COc1cccc(CN(CC(=O)O)S(=O)(=O)N2CCCc3ccccc32)c1 [Example 34, [N-(1,2,3,4-tetrahydroquinolinyl)sulfonyl-N-[3-[(2-phenyl-5-methyloxazol-4-yl)methoxy]benzyl]amino]acetic acid] | 2
Cc1oc(-c2ccc(C(F)(F)F)cc2)nc1COc1cccc(CN(CC(=O)O)S(=O)(=O)N2CCCc3ccccc32)c1 [Example 36, [N-(1,2,3,4-tetraquinolinyl)sulfonyl-N-[3-[[2-(4-trifluoromethylphenyl)-5-methyloxazol-4-yl]methoxy]benzyl]amino]acetic acid] | 2

Continued, values first:

Activity at 25 μM Step 1 293T cell | Structure (SMILES)
3 | Cc1ccc(-c2nc(COc3cccc(CN(CC(=O)O)S(=O)(=O)N(C)C)c3)c(C)o2)cc1 [Example 4, [N—[(N,N-dimethylamino)sulfonyl]-N-[3-[[2-(4-methylphenyl)-5-methyloxazol-4-yl]methoxy]benzyl]amino]acetic acid]
2 | Cc1oc(-c2ccc(C(F)(F)F)cc2)nc1COc1cccc(CN(CC(=O)O)S(=O)(=O)N2CCCC2)c1 [Example 25, [N-(pyrrolidinyl)sulfonyl-N-[3-[[2-(4-trifluoromethylphenyl)-5-methyloxazol-4-yl]methoxy]benzyl]amino]acetic acid]
1 | Cc1oc(-c2ccc(C(F)(F)F)cc2)nc1COc1cccc(CN(CC(=O)O)S(=O)(=O)N2CCN(C)CC2)c1 [Example 27, [N-(4-methyl-1-piperazinyl)sulfonyl-N-[3-[[2-(4-trifluoromethylphenyl)-5-methyloxazol-4-yl]methoxy]benzyl]amino]acetic acid]
3 | Cc1ccc(-c2nc(COc3cccc(CN(CC(=O)O)S(=O)(=O)N4CCc5ccccc54)c3)c(C)o2)cc1 [Example 31, [N-(indolinyl)sulfonyl-N-[3-[[2-(4-methylphenyl)-5-methyloxazol-4-yl]methoxy]benzyl]amino]acetic acid]
2 | Cc1ccc(-c2nc(COc3cccc(CN(CC(=O)O)S(=O)(=O)N4CCCc5ccccc54)c3)c(C)o2)cc1 [Example 35, [N-(1,2,3,4-tetrahydroquinolinyl)sulfonyl-N-[3-[[2-(4-methylphenyl)-5-methyloxazol-4-yl]methoxy]benzyl]amino]acetic acid]
2 | Cc1oc(-c2ccccc2)nc1COc1ccc(CN(CC(=O)O)S(=O)(=O)N(C)C)cc1 [Example 38, [N—(N,N-dimethylamino)sulfonyl-N-[4-[(2-phenyl-5-methyloxazol-4-yl)methoxy]benzyl]amino]acetic acid]
2 | Cc1ccc(-c2nc(COc3ccc(CN(CC(=O)O)S(=O)(=O)N(C)C)cc3)c(C)o2)cc1 [Example 39, [N—(N,N-dimethylamino)sulfonyl-N-[4-[[2-(4-methylphenyl)-5-methyloxazol-4-yl]methoxy]benzyl]amino]acetic acid]
2 | Cc1oc(-c2ccc(C(F)(F)F)cc2)nc1COc1ccc(CN(CC(=O)O)S(=O)(=O)N(C)C)cc1 [Example 40, [N—(N,N-dimethylamino)sulfonyl-N-[4-[[2-(4-trifluoromethylphenyl)-5-methyloxazol-4-yl]methoxy]benzyl]amino]acetic acid]
3 | Cc1ccc(-c2nc(COc3ccc(CN(CC(=O)O)S(=O)(=O)N4CCCC4)cc3)c(C)o2)cc1 [Example 42, [N-(pyrrolidinyl)sulfonyl-N-[4-[[2-(4-methylphenyl)-5-methyloxazol-4-yl]methoxy]benzyl]amino]acetic acid]
2 | Cc1ccc(-c2nc(COc3ccc(CN(CC(=O)O)S(=O)(=O)N4CCN(C)CC4)cc3)c(C)o2)cc1 [Example 43, [N-(4-methyl-1-piperazinyl)sulfonyl-N-[4-[[2-(4-methylphenyl)-5-methyloxazol-4-yl]methoxy]benzyl]amino]acetic acid]
